# Results as given in US10988465B2, “CXCR4 inhibitors and uses thereof” (X4 Pharmaceuticals, Inc., priority 2016, dated 2021).
# Read-outs that look alike come from different tables or passages of the source.
# Key:
# [1] = target: T1, CXCR-4 transfected U87 cell line (U87.CXCR4) (Homo sapiens, UniProt P61073); assay: Intracellular CXCL-12-induced calcium mobilization assay (FLIPR); assay type: cell-based; conditions: U87.CXCR4 cells; CXCL-12 25-50 ng/mL; compound added 15 min before; read-out: IC50 CXCL-12 Ca^2+ flux U87.CXCR4+
# T1 construct: expressed in transfected cells; host or cells: U87 (U87.CXCR4)
# Summary of the method: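 CXCL-12 (25-50 ng/mL) was the stimulus, and the intracellular calcium rise was tracked kinetically by FLIPR at 37 °C. Cells were U87.CXCR4 transfectants pre-loaded 45 min at 37 °C with 4 μM (final) Fluo-2 AM in HEPES-buffered HBSS with 0.2% BSA, pH 7.4.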
# [2] = Rat brain uptake assay: pharmacokinetics and brain penetration after IV-PO administration; assay type: in vivo, male SD rats; conditions: male, SD; for clearance / AUC(0-t) / bioavailability / half-life: Rat (3 mg/kg IV; 10 mg/kg, PO); for bioavailability: read-out: F % (oral bioavailability); for half-life: read-out: t½ (converted)
# Description: Example 39: Pharmacokinetics and Brain Penetration Experiment to Determine Brain and Plasma Concentration of Compounds after IV-PO Administration to Male SD Rats
# The IV and PO dosing solutions were prepared in 50 mM citrate buffer (pH 4.0) at 2 mg/mL. The blood collection was performed as follows: the animal was restrained manually at the designated time points, approximately 150 μL of blood sample was collected via cardiac puncture vein into EDTA-2K tubes. The blood samples were maintained in wet ice first and centrifuged to obtain plasma (2000 g, 4° C., 5 min) within 15 minutes post sampling. The brain collection was performed as follows: a mid-line incision was made in the animal's scalp and the skin was retracted. Using small bone cutters and rongeurs, the skull overlying the brain was removed. The brain was removed using a spatula and rinsed with cold saline. The brain was placed in screw-top tubes and then stored under −70° C. until analysis. The CSF collection was performed as follows: the animal was euthanized under deep anesthesia with air bubble tail vein injection. The CSF was collected by direct puncture of butterfly needle into the cisterna magna, using the occipital bone and the wings of the atlas as landmarks. A piece of white paper was used as a background to monitor color change in the sample just above the needle during collection. Upon observation of color change, the PE tubing was quickly clamped off above the color change and cut just above the clamped site. The clear sample was drawn into the syringe.
# An aliquot of 30 μL sample was added to 100 μL MeCN containing 100 ng/mL IS (Dexamethasone). The mixture was vortexed for 10 min and centrifuged at 5800 rpm for 10 min. An aliquot of 40 μL supernatant was added with 40 μl H2O and the mixture was vortexed for 5 min. An aliquot of 2 μL supernatant was injected for LC-MS/MS analysis.
# The sample was homogenized with 3 volumes (v/w) of PBS. An aliquot of 30 μL sample was added with 100 μL MeCN containing 100 ng/mL IS (Dexamethasone). The mixture was vortexed for 10 min and centrifuged at 5800 rpm for 10 min. An aliquot of 40 μL supernatant was added with 40 μl H2O and the mixture was vortexed for 5 min. An aliquot of 2 μL supernatant was injected for LC-MS/MS analysis.
# An aliquot of 10 μL sample was added to 10 μL MeOH/H2O (1/1) and 40 μL ACN containing 200 ng/mL IS (Dexamethasone) 120 μL H2O. The mixture was vortexed for 5 min. An aliquot of 2 μL supernatant was injected for LC-MS/MS analysis.
# The sample analysis was performed on UPLC-MS/MS-02 (Triple Quad™ 4000) under the following conditions: positive ion, ESI, MRM detection using dexamethasone as internal standard. HPLC conditions: mobile phase A: H2O-0.1% FA, mobile phase B: MeCN-0.1% FA on ACQUITY UPLC HSS T3 (2.1×50 mm, 1.8 μm) column at 60° C. In Table 11, F % means means oral bioavailability (the total number for protein bound and free fraction).
# [3] = target: T2, Jurkat cells expressing CXCR4 (Homo sapiens, UniProt P61073); assay: Chemokine (CXCL12-AF647) binding inhibition assay; conditions: CXCL12-AF647 25 ng/mL, read-out: IC50 CXCL-12 binding Jurkat
# T2 construct: endogenous in cells; host or cells: Jurkat
# Summary of the method: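 Cells in HBSS, 20 mM HEPES, 0.2% BSA, pH 7.4, preincubated 15 min at room temperature with compound, then 25 ng/mL CXCL12-AF647 for 30 min. After washing and paraformaldehyde fixation, bound ligand read by flow cytometry; percent inhibition calculated from MFI relative to unlabeled and ligand-only controls.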
# T2 sequence (P61073 whole entry): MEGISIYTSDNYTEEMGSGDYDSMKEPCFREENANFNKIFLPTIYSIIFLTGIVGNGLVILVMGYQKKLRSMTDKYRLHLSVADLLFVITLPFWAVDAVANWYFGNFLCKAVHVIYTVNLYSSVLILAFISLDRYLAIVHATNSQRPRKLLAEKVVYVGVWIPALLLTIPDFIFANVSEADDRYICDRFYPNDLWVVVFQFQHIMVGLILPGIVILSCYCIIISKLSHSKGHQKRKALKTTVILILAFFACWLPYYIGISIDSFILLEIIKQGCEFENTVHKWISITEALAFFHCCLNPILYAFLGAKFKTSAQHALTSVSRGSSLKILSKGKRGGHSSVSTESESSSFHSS
# T1 sequence (P61073 whole entry): as above
"Kp uu ([2]; brain/plasma (unbound), Fu (b)*AUC last (b)/Fu (p)*AUC last (p), Rat, read-out: Kp, uu (unbound brain/unbound plasma drug concentration ratio))","Kp ([2]; brain/plasma, AUC last(b)/AUC last(p), Rat, read-out: Kp (brain/plasma drug concentration ratio))",Compound,IC50 [1],clearance ([2]; plasma),"AUC(0-t) ([2]; plasma, read-out: AUClast (P))",bioavailability ([2]; plasma),half-life ([2]; plasma),"AUC(0-t) ([2]; brain, read-out: AUClast (b))",IC50 [3]
–,–,"Cc1cccnc1[C@@H]1CCC[C@H](c2nc3cccc(N4CCN(C)CC4)c3[nH]2)N1C (racemic) [I-3, 2-((2R,6S)-1-methyl-6-(3-methylpyridin-2-yl)piperidin-2-yl)-7-(4-methylpiperazin-1-yl)-1H-benzo[d]imidazole]",0.01 to 100 nM,123 mL/min/kg,503 ng·h/mL,37.6%,2.1 h,1520 ng·h/mL,0.01 to 100 nM
0.2,1.22,CN1CCN(c2cccc3nc([C@H]4CCC[C@@H](c5ncccc5Cl)N4)[nH]c23)CC1 (racemic) [I-122],0.01 to 100 nM,31.7 mL/min/kg,5440 ng·h/mL,74.6%,5.31 h,6650 ng·h/mL,0.01 to 100 nM
